We go through ten molecules from PubChem BioAssay (NCI).

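Step 1: Grow cells in 96-well plates. Step 2: Expose to compound for 48 hours at 5 concentrations. Step 3: Interpolate endpoints linearly; if unreached, use highest concentration. TGI: concentration producing complete growth inhibition.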 Where only a bound is given, the exact number is not on record here.

Test systems include CCRF-CEM leukemia; COLO 205 colon; K-562 leukemia; MALME-3M melanoma; NCI-H23 lung; OVCAR-4 ovarian; RPMI-8226 leukemia; RXF 393 renal; SF-295 CNS; SK-MEL-2 melanoma; SN12C renal; U251 CNS; UACC-62 melanoma; KM12 colon; PC-3 prostate; T-47D breast; HOP-92 NSCLC; BT-549 breast.
Holding throughout (assay): NCI anticancer screen, dose series, 48 h

On to `COc1ccc(-c2cc(=O)c3cc4c(cc3[nH]2)OCO4)cc1`, for which the TGI with CCRF-CEM leukemia, in the assay with COLO 205 colon, in the assay on K-562 leukemia, in the assay with MALME-3M melanoma, in the assay with NCI-H23 lung and in the assay on OVCAR-4 ovarian was > 100 µM in each case. In addition, the TGI in the assay on RPMI-8226 leukemia, in the assay with RXF 393 renal, in the assay with SF-295 CNS, in the assay on SK-MEL-2 melanoma, in the assay on SN12C renal and in the assay with U251 CNS was > 100 µM throughout. The TGI in the assay with UACC-62 melanoma is > 100 µM.

As for `O=C(/C=C/c1ccc(Cl)cc1)c1cccs1`, the TGI is 98.1 µM with CCRF-CEM leukemia; 37.9 µM in the assay on COLO 205 colon; > 100 µM in the assay with K-562 leukemia; 31.1 µM in the assay on KM12 colon; 36.7 µM with MALME-3M melanoma; 32.8 µM with PC-3 prostate. Also, the TGI in the assay on RPMI-8226 leukemia was 8.29 µM; in the assay with SF-295 CNS it was 38.5 µM; in the assay with SK-MEL-2 melanoma, > 100 µM; in the assay on SN12C renal, 33.2 µM; with T-47D breast, 45.1 µM; in the assay with U251 CNS it was 29.5 µM. Moreover, the TGI in the assay on UACC-62 melanoma is 49.2 µM.

In the case of `O=C1[C@@H]2C[C@@H](O)CN2C(=O)c2ccccc2N1CCCO`, the TGI with HOP-92 NSCLC, with K-562 leukemia, in the assay on KM12 colon, with PC-3 prostate, with RPMI-8226 leukemia and with SF-295 CNS was > 100 µM throughout. The TGI with SK-MEL-2 melanoma, in the assay on SN12C renal, in the assay with T-47D breast, in the assay on U251 CNS and in the assay on UACC-62 melanoma was > 100 µM in each case.

As for `C=CCNC(=O)NCCCC(NC(C)=O)C(=O)NCc1ccccc1` (stereo unspecified), the TGI in the assay on CCRF-CEM leukemia, in the assay on COLO 205 colon, in the assay with HOP-92 NSCLC, with K-562 leukemia, with KM12 colon and with MALME-3M melanoma was > 100 µM in each case. Besides, the TGI in the assay on NCI-H23 lung, in the assay on OVCAR-4 ovarian, in the assay on RPMI-8226 leukemia, in the assay with RXF 393 renal, in the assay with SF-295 CNS and in the assay with SK-MEL-2 melanoma was > 100 µM each time. The TGI in the assay on SN12C renal, with U251 CNS and in the assay on UACC-62 melanoma was > 100 µM each time.

Take `O=c1c2cn[nH]c2nc2scc(-c3ccc(Cl)cc3)n12`: the TGI with CCRF-CEM leukemia, with COLO 205 colon, in the assay on K-562 leukemia, with KM12 colon, in the assay on MALME-3M melanoma and with NCI-H23 lung was > 100 µM each time. For the same molecule, the TGI in the assay on OVCAR-4 ovarian, in the assay on PC-3 prostate, with RPMI-8226 leukemia, with RXF 393 renal, with SF-295 CNS and in the assay with SK-MEL-2 melanoma was > 100 µM throughout. Further, the TGI in the assay on SN12C renal, in the assay with T-47D breast, in the assay on U251 CNS and in the assay with UACC-62 melanoma was > 100 µM throughout.

Take `O=C1CC(C(=O)N2CCCCC2)n2c(=O)n(-c3ccccc3)c(=O)n2C1` (stereo unspecified): the TGI in the assay with BT-549 breast, in the assay with COLO 205 colon, in the assay with KM12 colon, with MALME-3M melanoma, with NCI-H23 lung and with PC-3 prostate was > 100 µM throughout. For the same molecule, the TGI in the assay with RXF 393 renal, in the assay with SF-295 CNS and in the assay with UACC-62 melanoma was > 100 µM throughout.

Consider `C[n+]1cccc2ccc(OC(=O)c3ccccc3)cc21`, for which the TGI in the assay with COLO 205 colon, with HOP-92 NSCLC, with K-562 leukemia, in the assay on KM12 colon, in the assay on MALME-3M melanoma and with NCI-H23 lung was > 100 µM in each case. In addition, the TGI in the assay on OVCAR-4 ovarian, in the assay with RPMI-8226 leukemia, in the assay with RXF 393 renal, in the assay on SF-295 CNS, in the assay on SK-MEL-2 melanoma and in the assay on SN12C renal was > 100 µM each time. The TGI in the assay on T-47D breast and with UACC-62 melanoma was > 100 µM throughout.

On to `O=C1NC(=O)C(COCc2ccccc2)C2=C1SCCC2` (stereo unspecified), for which the TGI in the assay with BT-549 breast, with CCRF-CEM leukemia, in the assay with COLO 205 colon, in the assay on HOP-92 NSCLC, in the assay on K-562 leukemia and in the assay with KM12 colon was > 100 µM throughout. Further, the TGI in the assay with MALME-3M melanoma, in the assay with NCI-H23 lung, with OVCAR-4 ovarian, in the assay with PC-3 prostate, in the assay on RPMI-8226 leukemia and in the assay on RXF 393 renal was > 100 µM in each case. The TGI in the assay with SF-295 CNS, in the assay with SK-MEL-2 melanoma and in the assay on U251 CNS was > 100 µM each time.

`O=C(NCCc1ccccc1)c1c(O)c2ccccc2[nH]c1=O`: the TGI in the assay on BT-549 breast, with CCRF-CEM leukemia, with COLO 205 colon, in the assay with HOP-92 NSCLC, in the assay with K-562 leukemia and with KM12 colon was > 100 µM each time. Moreover, the TGI in the assay with MALME-3M melanoma, in the assay on NCI-H23 lung, in the assay on OVCAR-4 ovarian, with PC-3 prostate, in the assay with RPMI-8226 leukemia and in the assay with RXF 393 renal was > 100 µM each time. Moreover, the TGI in the assay with SF-295 CNS, in the assay on SN12C renal and in the assay with U251 CNS was > 100 µM in each case.

Regarding `O=C1C(=Nc2ccccc2)Oc2cc(O)ccc21`, the TGI in the assay with CCRF-CEM leukemia, in the assay on COLO 205 colon, with K-562 leukemia, with KM12 colon, with MALME-3M melanoma and with NCI-H23 lung was > 100 µM each time. Moreover, the TGI in the assay on OVCAR-4 ovarian, in the assay on PC-3 prostate, in the assay on RXF 393 renal, with SF-295 CNS, with SK-MEL-2 melanoma and with SN12C renal was > 100 µM throughout. Also, the TGI in the assay with T-47D breast, in the assay on U251 CNS and with UACC-62 melanoma was > 100 µM in each case.
